Seven compounds from publication PMC4784473 (Bioorganic & medicinal chemistry letters, 2008) can be followed below.

One test relates to Vero cells. Kind of test: Vero cell cytotoxicity. The format is cell-based. Particulars: Vero cell toxicity versus M. tuberculosis growth inhibition.
The target in the next test is M. tuberculosis DXS (Mycobacterium tuberculosis, UniProt P9WNS3). Kind of test: biochemical. It counts as biochemical. Conditions: for inhibitory activity against M. tuberculosis DXS (in words): SAR discussion.
M. tuberculosis DXS, sequence (P9WNS3 whole entry): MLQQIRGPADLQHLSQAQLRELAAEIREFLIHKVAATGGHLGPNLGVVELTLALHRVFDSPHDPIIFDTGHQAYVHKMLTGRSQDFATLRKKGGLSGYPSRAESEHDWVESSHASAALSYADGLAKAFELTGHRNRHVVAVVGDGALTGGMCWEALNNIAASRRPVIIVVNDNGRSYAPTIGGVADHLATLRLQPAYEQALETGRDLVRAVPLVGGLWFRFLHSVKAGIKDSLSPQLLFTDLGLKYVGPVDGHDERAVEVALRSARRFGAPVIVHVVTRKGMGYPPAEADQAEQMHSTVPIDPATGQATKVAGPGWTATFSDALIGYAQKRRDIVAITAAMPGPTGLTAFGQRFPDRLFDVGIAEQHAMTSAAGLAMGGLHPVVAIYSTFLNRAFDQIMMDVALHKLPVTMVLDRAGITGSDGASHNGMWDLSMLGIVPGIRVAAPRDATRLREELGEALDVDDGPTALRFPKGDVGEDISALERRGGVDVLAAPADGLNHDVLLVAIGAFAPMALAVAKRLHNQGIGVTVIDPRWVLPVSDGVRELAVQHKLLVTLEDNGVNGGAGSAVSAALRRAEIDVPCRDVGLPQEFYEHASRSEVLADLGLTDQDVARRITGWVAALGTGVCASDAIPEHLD

Compound `COc1ccc(-c2cc(=O)n3nc(C)c(-c4ccc(Cl)cc4)c3[nH]2)cc1` [Compound 18] came in with a selectivity index in the test on Vero cells of 2.1.

As for `Cc1cc(=O)n2ncc(-c3ccc(Cl)cc3)c2[nH]1` [Compound 3], the “inhibitory activity against M. tuberculosis DXS (in words)” value (shortened to “inhibitory activity”) against M. tuberculosis DXS is on record as “inhibitory activity was abolished”.

For the compound `CCOC(=O)Cc1c(C)nc2c(-c3ccccc3)cnn2c1O` [Compound 4], the “inhibitory activity” value against M. tuberculosis DXS is “lost its activity”. Still for that read-out and setting: the entry for `COCc1cc(=O)n2nc(C)c(-c3ccc(Cl)cc3)c2[nH]1` [Compound 25] is “loss in activity”. As to `COc1ccc(-c2cc(=O)n3nc(C)c(-c4ccc(F)cc4)c3[nH]2)cc1` [Compound 19, 2-methyl-3-(4-fluorophenyl)-5-(4-meth-oxy-phenyl)-4H-pyrazolo[1,5-a]pyrimidin-7-one], the selectivity index with Vero cells is on record as 4.6.

`CCCc1c(-c2ccccc2)[nH]c2c(-c3ccccc3)c(C)nn2c1=O` [Compound 27]: the midpoint of inhibition at M. tuberculosis DXS, the IC50, lay at 71.9 ± 10.1 µM. With `COCc1cc(=O)n2ncc(-c3ccc(Cl)cc3)c2[nH]1` [Compound 2], the “inhibitory activity” value against M. tuberculosis DXS is listed as “inhibitory activity was abolished”.
